These results are taken from US20160256449A1, “H3 RECEPTOR ANTAGONIST FOR USE IN THE TREATMENT OF ALZHEIMER'S DISEASE” (SANOFI, priority 2013, published 2016).

One experiment has as its system various rodent models. To be noted: cited from earlier work.
The next experiment deals with CD1 male mice. Description: object recognition test in normal mice. Type of experiment: in vivo. To be noted: 3 mg/kg oral, individually. An excerpt:
FIG. 1 illustrates the results of the effect of a co-treatment with 2-(cyclohexyl methyl)-N-{2-[(2S)-1-methyl pyrrolidin-2-yl]ethyl}-1,2,3,4-tetrahydroisoquinoline-7-sulfonamide and donepezil on recognition memory in normal mice at various delays using the object recognition task.
The results of this study are depicted in FIG. 1.

The subject of another experiment is scopolamine treated mice. Description: object recognition task in scopolamine-treated mice. The format is in vivo. To be noted: 1 mg/kg alone. An excerpt: FIG. 2 illustrates the results of the effect of a co-treatment with 2-(cyclohexylmethyl)-N-{2-[(2S)-1-methylpyrrolidin-2-yl]ethyl}-1,2,3,4-tetrahydroisoquinoline-7-sulfonamide and donepezil on recognition memory deficit in scopolamine-treated mice using the object recognition task.
The results of this study are depicted in FIG. 2.

Structures can show the parent of a compound that is named as a salt.

With `CN1CCC[C@H]1CCNS(=O)(=O)c1ccc2c(c1)CN(CC1CCCCC1)CC2` [2-(Cyclohexylmethyl)-N-{2-[(2S)-1-methylpyrrolidin-2-yl]ethyl}-1,2,3,4-tetrahydroisoquinoline-7-sulfonamide], in the experiment on various rodent models, the “cognitive performances on short-term and long-term memory and attention deficits” value is recorded as “improves cognitive performances”.

Turning to `COc1cc2c(cc1OC)C(=O)C(CC1CCN(Cc3ccccc3)CC1)C2` (racemic) [donepezil hydrochloride, (±)-2,3-dihydro-5,6-dimethoxy-2-[[1-(phenylmethyl)-4-piperidinyl]methyl]-1H-inden-1-one, reference compound], the “memory in object recognition test” value in the experiment on CD1 male mice (24 hours after administration) is “enhanced the memory”. Also, the “procognitive effect in object recognition test” value in the experiment with CD1 male mice (after 48 hours) was “lack of procognitive effect”. The “activity of the amount given alone, episodic memory deficits” value with scopolamine treated mice is “inactive”.
